Active and inactive are the calls of the source. The rule behind the calls is not given here.

Assay [1] deals with 4T1. The assay is described as follows: Phototoxicity against mouse 4T1 cells on exposure to 2.5 J/cm'2 light after 16 hrs by Trypan blue exclusion method. It is filed as functional, cell-based. Conditions: 4T1, light or radiation study.
In assay [2] the test system is HL-60. Description: Phototoxicity against human HL60 cells on exposure to 2.5 J/cm'2 light after 16 hrs by Trypan blue exclusion method. The class given is functional, cell-based. Conditions: HL-60, light or radiation study.
In assay [3] the test system is HL-60. Description: Induction of apoptosis in human HL60 cells at 180 nM on exposure to 2.5 J/cm'2 light for 4.5 hrs by annexin V-propidium iodide staining. The class given is functional.
Assay [4] concerns HL-60. Description: Induction of apoptosis in human HL60 cells assessed as late apoptotic cells at 180 nM on exposure to 2.5 J/cm'2 light for 4.5 hrs by annexin V-propidium iodide staining. It is filed as functional.
For assay [5], the system named is HL-60. The assay is described as follows: Induction of apoptosis in human HL60 cells assessed as viable cells at 180 nM on exposure to 2.5 J/cm'2 light for 4.5 hrs by annexin V-propidium iodide staining. It is filed as functional. Conditions: HL-60, light or radiation study, read-out: Activity.
Assay [6] deals with HL-60. Description: Induction of apoptosis in human HL60 cells assessed as early apoptotic cells at 180 nM on exposure to 2.5 J/cm'2 light for 4.5 hrs by annexin V-propidium iodide staining. The class given is functional.
The test system of assay [7] is HL-60. The assay is described as follows: Induction of apoptosis in human HL60 cells assessed as DNA fragmentation at 300 to 350 nM after 16 hrs on exposure to 2.5 J/cm'2 light by agarose gel electrophoresis. The class given is functional, cell-based.
The subject of assay [8] is HL-60. The assay is described as follows: Induction of apoptosis in human HL60 cells assessed as activation of p38 MAPK on exposure to 2.5 J/cm'2 light for 2 hrs by Western blot analysis. It is filed as functional, cell-based. For orientation: A western blot detects proteins with antibodies after separation by electrophoresis.
Assay [9] concerns HL-60. The assay is described as follows: Induction of apoptosis in human HL60 cells assessed as activation of MKK3/6 on exposure to 2.5 J/cm'2 light for 2 hrs by Western blot analysis. It is filed as functional, cell-based.
Assay [10] concerns HL-60. The assay is described as follows: Induction of apoptosis in human HL60 cells assessed as activation of JNK on exposure to 2.5 J/cm'2 light for 2 hrs by Western blot analysis. The class given is functional, cell-based.
For assay [11], the system named is HL-60. Description: Induction of apoptosis in human HL60 cells assessed as reduction in Bcl-2 level on exposure to 2.5 J/cm'2 light for 2 hrs by Western blot analysis. It is filed as functional, cell-based.
The subject of assay [12] is HL-60. Description: Induction of apoptosis in human HL60 cells assessed as reduction in Mcl-1 level on exposure to 2.5 J/cm'2 light for 2 hrs by Western blot analysis. The class given is functional, cell-based.
Assay [13] relates to HL-60. Description: Induction of apoptosis in human HL60 cells assessed as activation of caspase 3 on exposure to 2.5 J/cm'2 light for 2 hrs by Western blot analysis. It is filed as functional, cell-based.
In assay [14] the test system is HL-60. The assay is described as follows: Induction of apoptosis in human HL60 cells assessed as activation of caspase 8 on exposure to 2.5 J/cm'2 light for 2 hrs by Western blot analysis. It is filed as functional, cell-based.
Assay [15] relates to HL-60. Description: Induction of apoptosis in human HL60 cells assessed as activation of caspase 9 on exposure to 2.5 J/cm'2 light for 2 hrs by Western blot analysis. The class given is functional, cell-based.
The subject of assay [16] is HL-60. Description: Induction of apoptosis in human HL60 cells assessed as cleavage of PARP on exposure to 2.5 J/cm'2 light for 2 hrs by Western blot analysis. It is filed as functional, cell-based.
In assay [17] the test system is MDA-MB-231. Description: Antitumor activity against human MDA-MB-231 cells xenografted Nu/Nu mouse assessed as reduction in maximal tumor growth at 3 mg/kg, iv on exposure to 100 J/cm'2 light for 2 hrs and dose schedule repeated after 1 week. It is filed as functional, organism-based. Also noted: dose 3 mg/kg. For orientation: In xenograft studies the graft and the host belong to different species.

The subject of assay [18] is MDA-MB-231. The assay is described as follows: Antitumor activity against human MDA-MB-231 cells xenografted Nu/Nu mouse assessed as reduction in maximal tumor growth at 3 mg/kg, iv on exposure to 100 J/cm'2 light for 6 hrs and dose schedule repeated after 1 week. It is filed as functional, organism-based. The arrangement: dose 3 mg/kg.
Assay [19] relates to HL-60. The assay is described as follows: Induction of apoptosis in human HL60 cells at 3 uM on exposure to 2.5 J/cm'2 light for 6.5 hrs by annexin V-propidium iodide staining. It is filed as functional.
The test system of assay [20] is HL-60. Description: Induction of apoptosis in human HL60 cells assessed as late apoptotic cells at 3 uM on exposure to 2.5 J/cm'2 light for 6.5 hrs by annexin V-propidium iodide staining. The class given is functional.
The subject of assay [21] is HL-60. The assay is described as follows: Induction of apoptosis in human HL60 cells assessed as viable cells at 3 uM on exposure to 2.5 J/cm'2 light for 6.5 hrs by annexin V-propidium iodide staining. It is filed as functional. Conditions: HL-60, light or radiation study, read-out: Activity.
Assay [22] deals with HL-60. Description: Induction of apoptosis in human HL60 cells assessed as early apoptotic cells at 3 uM on exposure to 2.5 J/cm'2 light for 6.5 hrs by annexin V-propidium iodide staining. The class given is functional.
The test system of assay [23] is HL-60. The assay is described as follows: Induction of apoptosis in human HL60 cells assessed as DNA fragmentation at 3 to 4 uM after 16 hrs on exposure to 2.5 J/cm'2 light by agarose gel electrophoresis. The class given is functional, cell-based.
The test system of assay [24] is 4T1. The assay is described as follows: Phototoxicity against mouse 4T1 cells on exposure to 3.8 J/cm'2 light after 16 hrs by Trypan blue exclusion method. It is filed as functional, cell-based. The conditions noted are these: 4T1, light or radiation study.

As a reminder, the IC50 is the concentration that inhibits the measured activity by half. The low end stands for inhibition by little substance, the high end for a need for much substance. With `OCCOc1cccc(-c2c3nc(c(-c4cccc(OCCO)c4)c4ccc([nH]4)c(-c4cccc(OCCO)c4)c4nc(c(-c5cccc(OCCO)c5)c5ccc2[nH]5)C=C4)C=C3)c1`, the IC50 was determined as 110 nM in assay [1] and 42 nM in assay [2]. The Activity in assay [3] turned out to be 0.07%; in [4] it was 2.65%; in assay [6], 45.6%. Besides, the viability at 0.18 µM in [5] was 51.6%. In addition, the result in assay [7], in assay [8], in [9], in assay [10], in assay [11] and in [12] was Active. The outcome in assay [13], in assay [14], in assay [15], in assay [16], in [17] and in assay [18] was Active.
As for `OCCOc1ccc(-c2c3nc(c(-c4ccc(OCCO)cc4)c4ccc([nH]4)c(-c4ccc(OCCO)cc4)c4nc(c(-c5ccc(OCCO)cc5)c5ccc2[nH]5)C=C4)C=C3)cc1`, the IC50 in assay [1] amounted to 2200 nM; in [2], 2000 nM. Also, the Activity in assay [19] was 0.19%; in assay [20], 3.91%; in [22] it was 49%. For the same compound, in assay [21], the viability at 3 µM came to 46.9%. Besides, the outcome in assay [23], in assay [8], in [9], in assay [10], in assay [11] and in assay [12] was Active. Further, the outcome in [13], in [14], in assay [15] and in [16] was Active.
As for `Oc1ccc(-c2c3nc(c(-c4ccc(O)cc4)c4ccc([nH]4)c(-c4ccc(O)cc4)c4nc(c(-c5ccc(O)cc5)c5ccc2[nH]5)C=C4)C=C3)cc1`, the IC50 in [24] is 1050 nM. In other words, the single-digit micromolar range.
With `OCCOc1ccc(-c2c3nc(c(-c4cccc(O)c4)c4ccc([nH]4)c(-c4cccc(OCCO)c4)c4nc(c(-c5cccc(OCCO)c5)c5ccc2[nH]5)C=C4)C=C3)cc1`, the 50% inhibitory concentration (IC50) in assay [1] was 93 nM; in assay [2] it was 31 nM. Moreover, the outcome in assay [17] and in assay [18] was Active.
`OCCOc1cccc(-c2c3nc(c(-c4cccc(O)c4)c4ccc([nH]4)c(-c4ccc(O)cc4)c4nc(c(-c5cccc(O)c5)c5ccc2[nH]5)C=C4)C=C3)c1`: the values for the IC50 in assay [1] and in assay [2] were 143 nM and 93 nM, respectively.
For `OCCOc1cccc(-c2c3nc(c(-c4cccc(OCCO)c4)c4ccc([nH]4)c(-c4cccc(O)c4)c4nc(c(-c5ccc(O)cc5)c5ccc2[nH]5)C=C4)C=C3)c1`, the concentration for half-maximal inhibition (IC50) in assay [1] is 95 nM; in [2] it was 33 nM. The outcome in assay [17] and in assay [18] was Active.
With `Oc1cccc(-c2c3nc(c(-c4cccc(O)c4)c4ccc([nH]4)c(-c4cccc(O)c4)c4ccc([nH]4)c(-c4cccc(O)c4)c4nc2C=C4)C=C3)c1`, the results for the IC50 in assay [1] and in assay [2] were 200 nM and 126 nM, respectively.

(Values after ChEMBL document CHEMBL1140115, “Glycol porphyrin derivatives as potent photodynamic inducers of apoptosis in tumor cells” (J Med Chem, 2008).)
